Common to all, as to assay: relative viability (nuclei count vs DMSO), 5 days (fraction); higher = more cells survive
Compound in the test “Carboplatin + Phenformin”: C1CC(C1)(C(=O)O)C(=O)O.[NH2-].[NH2-].[Pt+2] [Carboplatin] + N=C(N)NC(=N)NCCc1ccccc1 [Phenformin] (partner 250 µM)
Summed up:
(§1)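 One day after seeding in 1536-well plates, lung cancer cell lines were dosed by pin tool. Dosing was either single-drug or a fixed anchor-drug dose plus five library-drug doses (not always all listed) in √10 steps. After 5 days, nuclei were stained in one fix-and-stain step and counted on 4× images, and relative viability is the nuclei count of treated wells over that of vehicle wells, given as the median of duplicate plates.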

Compound in the test “GSK126 + Navitoclax”: CC[C@H](C)N1C=C(C2=C(C=C(C=C21)C3=CN=C(C=C3)N4CCNCC4)C(=O)NCC5=C(C=C(NC5=O)C)C)C [GSK126] + CC1(C)CCC(c2ccc(Cl)cc2)=C(CN2CCN(c3ccc(C(=O)NS(=O)(=O)c4ccc(N[C@H](CCN5CCOCC5)CSc5ccccc5)c(S(=O)(=O)C(F)(F)F)c4)cc3)CC2)C1 [Navitoclax] (partner 0.5 µM)
The gist of the method: as §1

Compound in the test “MLN4924 + Olaparib”: NS(=O)(=O)OC[C@@H]1C[C@@H](n2ccc3c(N[C@H]4CCc5ccccc54)ncnc32)C[C@@H]1O [MLN4924] + O=C(c1cc(Cc2n[nH]c(=O)c3ccccc23)ccc1F)N1CCN(C(=O)C2CC2)CC1 [Olaparib] (partner 8 µM)
The gist of the method: as §1

Compound in the test “MLN4924 + Pemetrexed”: NS(=O)(=O)OC[C@@H]1C[C@@H](n2ccc3c(N[C@H]4CCc5ccccc54)ncnc32)C[C@@H]1O [MLN4924] + Nc1nc2[nH]cc(CCc3ccc(C(=O)N[C@@H](CCC(=O)O)C(=O)O)cc3)c2c(=O)[nH]1 [Pemetrexed] (partner 0.2 µM)
The gist of the method: as §1

Take UMC-11: the relative viability with Carboplatin + Phenformin (first compound 0.08 µM) was found to be 0.346; in the test with Carboplatin + Phenformin (first compound 0.253 µM), 0.324; with Carboplatin + Phenformin (first compound 0.8 µM), 0.317; with Carboplatin + Phenformin (first compound 2.53 µM) it was 0.331; with Carboplatin + Phenformin (first compound 8 µM) it was 0.275; in the test with GSK126 + Navitoclax (first compound 0.08 µM), 0.323. Also, the relative viability with GSK126 + Navitoclax (first compound 0.253 µM) turned out to be 0.314; in the test with GSK126 + Navitoclax (first compound 0.8 µM), 0.316; with GSK126 + Navitoclax (first compound 2.53 µM), 0.264; with GSK126 + Navitoclax (first compound 8 µM) it was 0.279; with MLN4924 + Olaparib (first compound 0.04 µM), 0.408; with MLN4924 + Olaparib (first compound 0.1265 µM), 0.246. Moreover, the relative viability in the test with MLN4924 + Olaparib (first compound 0.4 µM) came out at 0.255; with MLN4924 + Olaparib (first compound 1.265 µM), 0.154; with MLN4924 + Olaparib (first compound 4 µM), 0.138; with MLN4924 + Pemetrexed (first compound 0.04 µM), 0.53; in the test with MLN4924 + Pemetrexed (first compound 0.1265 µM) it was 0.327; with MLN4924 + Pemetrexed (first compound 0.4 µM) it was 0.289. For the same cell line, the figures for the relative viability with MLN4924 + Pemetrexed (first compound 1.265 µM) and with MLN4924 + Pemetrexed (first compound 4 µM) were 0.175 and 0.159, respectively.
